Data reported in patent US20060293395A1, “Methods for treating a mammal before, during and after cardiac arrest” (priority 2004, published 2006).
“Also recorded” adds a separate entry of the source.

Experiments:
male domestic pigs [1] = assay: Levosimendan on post-resuscitation myocardial function after beta-adrenergic blockade (propranolol); format: in vivo, pig
Description: Anesthesia was initiated by intramuscular injection of ketamine (20 mg/kg) and completed by ear vein injection of sodium pentobarbital (30 mg/kg). Additional doses of sodium pentobarbital (8 mg/kg) were injected to maintain anesthesia at intervals of one hour. A cuffed endotracheal tube was advanced into the trachea. Animals were mechanically ventilated with a volume-controlled ventilator (Model MA-1, Puritan-Bennett, Carlsbad, Calif.) with a tidal volume of 15 mL/kg, peak flow of 40 L/min, and FiO2 of 0.21. End-tidal PCO2 (ETCO2) was monitored with an infrared analyzer (Model 01R-7101A, Nihon Kohden Corp, Tokyo, Japan). Respiratory frequency was adjusted to maintain PETCO2 between 35 and 40 mm Hg.
For the measurement of left ventricular functions, a 5.5/7.5 […] biplane with Doppler transesophageal echocardiographic transducer with 4-way flexure (Model 21363A, Hewlett-Packard Co., Medical Products Group, Andover, Mass.) was advanced from the incisor teeth into the esophagus for a distance of approximately 35 cm. For the measurement of aortic pressure, a fluid-filled catheter was advanced from the left femoral artery into the thoracic aorta. For the measurements of right atrial, pulmonary arterial pressures and blood temperature, a 7-French, pentalumen, thermodilution-tipped catheter was advanced from the left femoral vein and flow-directed into the pulmonary artery. A 7-French catheter was advanced from the left cephalic vein into the great cardiac vein for the measurement of great cardiac vein blood gases and lactate. For inducing VF, a 5-French pacing catheter (EP Technologies, Inc., Mountain View, Calif.) was advanced from the right cephalic vein into the right ventricle.
The investigators were blinded to the randomization. Cardiac arrest was induced with 1 to 2 mA AC delivered to the endocardium of the right ventricle. Mechanical ventilation was discontinued after onset of VF. At the end of the 7-min interval of untreated VF, precordial compression was started with a pneumatic piston-driven chest compressor (Thumper, Model 1000, Michigan Instruments, Grand Rapids, Mich.). […] The compression force was adjusted to decrease the anterior-posterior diameter of the chest by 25%. After 5 min of precordial compression, defibrillation was attempted with a 150 J biphasic waveform shock delivered between the right infraclavicular area and the cardiac apex. If an organized cardiac rhythm with mean aortic pressure of more than 60 mm Hg persisted for an interval of 5 min or more, the animal was regarded as successfully resuscitated. All animals had restoration of spontaneous circulation (ROSC) after electrical defibrillation, and were then randomized to three treatment groups: (1) propranolol (0.1 mg/kg bolus at 6 min of VF); (2) propranolol plus levosimendan (at 10 min after post resuscitation, 20 μg/kg over 10 min followed by 0.4 μg/kg/min for 220 min); and (3) equal volumes of saline as placebo.
Measurements were obtained over an interval of 4 hours following resuscitation. After 4 hours, animals were euthanized by intravenous injection of 150 mg kg^−1 pentobarbital. Autopsy was performed to document injuries to the bony thorax and the thoracic and abdominal viscera.

Male Sprague-Dawley rats [2] = assay: Example 2: dobutamine vs levosimendan for post-resuscitation myocardial failure, 8 min untreated VF + 6 min precordial compression; format: in vivo, rat
Description: The animals were anesthetized following intraperitoneal injection of 45 mg kg^−1 pentobarbital. […] No anesthetic agent was administrated during the 30 minute interval prior to inducing cardiac arrest.
Pressures were measured with a high sensitivity pressure transducer (Model 42584-01; Abbott Critical Care System, North Chicago, Ill.). The optimally damped frequency response of the system was 22 Hz. […] Guided by pressure monitoring, the catheter was slowly withdrawn into the right atrium. Right atrial pressure was measured with reference to the mid-chest with another high sensitivity pressure transducer (Abbott model 42584-01). This catheter also served as an injection site for the thermal tracer. A 4 F polyethylene catheter (model C-PMS401J; Cook Critical Care, Bloomington, Ind.) was advanced through the right external jugular vein into the right atrium. A precurved guide wire supplied with the catheter was then advanced through the catheter into the right ventricle until an endocardial electrogram was observed. Another 23-gauge polyethylene catheter (PE 50) was advanced through the left femoral artery into the abdominal aorta for measurement of aortic pressure with the same Abbott high sensitivity transducer and also for sampling arterial blood. […] The thermocouple provided for measurements of blood temperature and thermodilution cardiac output. […] An additional PE 50 catheter was advanced into right femoral vein for drug infusion. EKG lead II was continuously recorded.
Experimental Procedure: A total of 15 animals were investigated. The investigators were blinded to the intervention until immediately prior to inducing VF, at which time the principal investigator opened a sealed envelope for assignment to one of three groups: (1) levosimendan (2) dobutamine or (3) saline placebo. This allowed time for preparation of a fresh dilution of the selected drug. […] Current flow was continued for 3 minutes to prevent spontaneous defibrillation as previously described (Von Planta I, Weil MH. Cardiopulmonary resuscitation in the rat. J Appl Physiol. 1988;65(6):2641-2647). Ventilation was discontinued after onset of VF. Precordial compression was begun with a pneumatically driven mechanical chest compressor after 8 minutes of untreated VF and continued for 6 minutes. These methods have been extensively exercised and have been well-documented (see Von Plata I (supra)) and Sun SJ, Weil MH, Tang W, et al. Combined effects of buffer and adrenergic agent on postresuscitation myocardial function. J Pharm Exp Ther. 1999;291 :773-777). Coincident with the start of precordial compression, the animals were mechanically ventilated. Tidal volume was established at 6.5 ml per kg animal weight, a frequency of 100 min^−1, and on a FiO2 of 1.0.

Male Sprague-Dawley rats [3] = assay: Example 1: post-resuscitation myocardial dysfunction after VF cardiac arrest, drug infusion for 240 min post-resuscitation
male domestic pigs [4] = assay: Example 3: dobutamine vs levosimendan in the porcine model of cardiac arrest and cardiac resuscitation; format: in vivo, pig
Description: Experimental Preparation: The experiments were performed in the porcine model of cardiac arrest and cardiac resuscitation which has been extensively exercised. (21,22). […] Anesthesia was initiated by intramuscular injection of ketamine (20 mg kg^−1) and was completed by ear vein injection of sodium pentobarbital (30 mg kg^−1). Additional 8 mg kg^−1 doses of sodium pentobarbital were injected to maintain anesthesia at intervals of one hour. A cuffed endotracheal tube was advanced into the trachea. Animals were mechanically ventilated with a volume of 15 mL kg^−1, peak airway flow of 40 L min^−1, and FiO2 of 0.2 with the aid of a volume-controlled ventilator (Model MA-1, Puritan-Bennett, Carlsbad, Calif.). End-tidal PCO2 (PETCO2) was monitored with an infrared analyzer (Model 01R-7101A, Nihon Kohden Corp, Tokyo, Japan). Respiratory frequency was adjusted to maintain PETCO2 between 35 and 40 mmHg. Blood temperature was maintained at 37±0.5° C. with the aid of infrared heating lamps, as required.
For the measurement of left ventricular functions, a 5.5/7.5 MHz biplane with pulse-wave Doppler transesophageal echocardiographic tranducer with 4-way flexure (Model 21363A, Hewlett-Packard Co. Medical Products Group, Andover, Mass.) was advanced from the incisor teeth into the esophagus for a distance of approximately 40 cm. For the measurement of aortic pressure, a fluid filled catheter was advanced from the surgically exposed left femoral artery into the thoracic aorta. For measurements of right atrial and pulmonary arterial pressures, blood temperature and cardiac output, a 7-French, pentalumen, thermodilution-tipped catheter was advanced from the surgically exposed left femoral vein and flow-directed into the pulmonary artery. For inducing VF, a 5-French pacing catheter (EP Techologies, Inc., Mountain View, Calif.) was advanced from the surgically exposed right cephalic vein into the right ventricle. […] This catheter was then looped laterally and advanced inferiorly for a distance of 5 cm into the great cardiac vein for sampling of coronary venous blood. The electrocardiographic (EKG) lead II was continuously recorded.
Experimental procedure: A total 15 animals were investigated. […] Cardiac arrest was induced with 1 to 2 mA AC delivered to the endocardium of the right ventricle. Mechanical ventilation was discontinued after onset of VF. At the end of a 7-minute interval of untreated VF, precordial compression (PC) was started with a pneumatic piston-driven chest compressor (Thumper, Model 1000, Michigan Instruments, Grand Rapids, Mich.). Coincident with the start of PC, the animal was mechanically ventilated with a tidal volume of […] and FiO2 of 1.0. […] The compression force was adjusted to decrease the anterior-posterior diameter of the chest by 25%. After 5 minutes of PC, defibrillation was attempted with a 150 J biphasic waveform shock delivered between the right infraclavicular area and the cardiac apex. If an organized cardiac rhythm with mean aortic pressure of more than 60 mm Hg persisted for an interval of 5 minutes or more, the animal was regarded as successfully resuscitated. At 10 minutes after restoration of spontaneous circulation (ROSC), one of the three interventions was begun. […] Levosimendan diluted in physiological salt solution was administered in a loading dose of 20 μg kg^−1, infused over 10 minutes, followed by infusion of 0.4 μg kg^−1 min^−1 also in physiologic salt solution for a total duration of 230 minutes.

[5] = compared to saline placebo / control (FIG. 27)

| Compound | postresuscitation ST segment elevation in ECG limb lead 2 (male domestic pigs [1]; 5 min after resuscitation (FIG. 26)) | number of postresuscitation premature ventricular beats (male domestic pigs [1]; 5 min interval after ROSC (FIG. 26)) | FAC (male domestic pigs [1]; [5]) | Postresuscitation ejection fractions (EF) (male domestic pigs [1]; [5]) | total energies of electrical shocks (male domestic pigs [1]; propranolol 0.1 mg/kg bolus at 6 min of VF) | number of electrical shocks (male domestic pigs [1]; propranolol 0.1 mg/kg bolus at 6 min of VF (FIG. 26)) | heart rate (Male Sprague-Dawley rats [2]; after administration, post-resuscitation) | mean arterial pressure (MAP) (Male Sprague-Dawley rats [2]; between the three groups) | duration of survival (Male Sprague-Dawley rats [2]; observed over 72 hours, least with saline placebo (FIG. 15)) | cardiac index (Male Sprague-Dawley rats [2]; post-resuscitation (FIG. 13)) | dP/dt40 (Male Sprague-Dawley rats [2]; vs saline placebo (FIG. 14)) | −dP/dt (Male Sprague-Dawley rats [2]; vs saline placebo (FIG. 14)) | arterial pressures (Male Sprague-Dawley rats [3]; among the three groups, at PR10 and after administration of the drugs (FIG. 4)) | heart rate (Male Sprague-Dawley rats [3]; post-resuscitation (FIG. 5)) | cardiac index (Male Sprague-Dawley rats [3]; post-resuscitation (FIG. 6)) | lusitropic (relaxation) effect (Male Sprague-Dawley rats [3]; post-resuscitation (FIG. 10)) | stroke volume (Male Sprague-Dawley rats [3]; post-resuscitation, initially (FIG. 7)) | heart rate (male domestic pigs [4]; among the three groups) | arterial pressure (male domestic pigs [4]; between levosimendan and dobutamine) | cardiac output (male domestic pigs [4]; vs saline placebo (FIG. 16)) |
| --- | --- | --- | --- | --- | --- | --- | --- | --- | --- | --- | --- | --- | --- | --- | --- | --- | --- | --- | --- | --- |
| CC(C)NCC(O)COc1cccc2ccccc12 (centres unmarked) [propranolol] | lesser; also recorded: significantly improved | significantly lesser number; also recorded: significantly improved | significantly increased; also recorded: significantly greater | significantly increased; also recorded: significantly greater | significantly lesser total energies | significantly smaller number; also recorded: significantly improved | – | – | – | – | – | – | – | – | – | – | – | – | – | – |
| CC(CCc1ccc(O)cc1)NCCc1ccc(O)c(O)c1 (centres unmarked) [Dobutamine] | – | – | – | – | – | – | moderate increase in heart rate | no significant differences | intermediate | significant increases in cardiac index | Significantly greater | Significantly greater | No significant differences | increases in heart rate of borderline significance | comparable increases in cardiac index | more profound lusitropic (relaxation) effect | significantly greater stroke volumes | did not differ | no differences in arterial pressure | Significantly greater cardiac output |
